What was measured:
[1] = tested on: cholestasis rat induced by ANIT; experiment: Efficacy on the cholestasis rat model induced by 1-naphthyl isothiocyanate (ANIT); assay type: in vivo, SD rats; set-up: ALT / AST / GGT / TBA: unit not given here; conditions: for level of ALT, AST, GGT and TBA in the serum of ANIT rat (in words): 3 and 10 mg/kg/d, conclusion of Test Example 2; for ALT / AST / GGT / TBA: serum, 4 days, ANIT rat
Protocol: Animals: SD rats, male, 7 to 8 weeks old, weight: 220 to 240 g, purchased from Beijing Vital River Laboratory Animal Technology Co., Ltd., SPF grade, Certificate No.: SCXK (Beijing) 2016-0011, license issuing administration: Beijing Municipal Commission of Science and Technology.
Sample formulation: The compound of the present invention was added to DMSO, and dissolved completely by ultrasound. 0.5% CMC-Na was added to constant volume (DMSO: 0.5% CMC-Na=1:99), and the solution was homogenized by ultrasound for later use.
After 3 to 5 days of acclimation, the animals were divided into 20 groups according to body weight: normal group, model group, Example 8 (3 mg/kg/d, 10 mg/kg/d) group, Example 11 (3 mg/kg/d, 10 mg/kg/d) group, Example 12 (3 mg/kg/d, 10 mg/kg/d) group, Example 14 (3 mg/kg/d, 10 mg/kg/d) group, Example 20 (3 mg/kg/d, 10 mg/kg/d) group, Example 22 (3 mg/kg/d, 10 mg/kg/d) group, Example 26 (3 mg/kg/d, 10 mg/kg/d) group, Example 28 (3 mg/kg/d, 10 mg/kg/d) group, and Example 29 (3 mg/kg/d, 10 mg/kg/d) group, with 10 rats for each group. Intragastric administration was conducted with an administration volume of 10 mL/kg, once a day, for a total of 4 days. On Day 2, ANIT (1-naphthyl isothiocyanate, Macklin, purity: 98%, item number: N814658, CAS number: 551-06-4, specification: 5 g/bottle, storage conditions: 2 to 8 degrees, batch number: C10116101) with a dose of 50 mg/kg and an administration volume of 5 mL/kg was administered intragastrically once to each animal (except for animals in the normal group) 4 hours after the administration. The animals were fasted on Day 4 morning. The animals were anesthetized by isoflurane inhalation using a small animal anesthesia machine. Blood was collected from the venous plexus behind the eyeball using a capillary glass tube (about 1 ml per animal), and then left to stand for about one hour. It was centrifuged at 3500 rpm for 10 minutes to obtain the serum. ALT, AST, GGT and TBA indexes as well as the plasma concentration of the compound were determined using an AU480 automatic biochemical analysis system (BECKMAN COULTER). Liver was collected, weighed, and cutted into pieces. Normal saline was added (liver weight: normal saline=1:2), and the mixture was homogenized and freezed. The concentration of the compound in liver was determined using an ultra performance liquid chromatograph (Shimadzu, LC 30AD) and triple quadrupole mass spectrometer (AB, TQ5500).

[2] = Visual inspection of solubility of test sample in extracellular fluid; assay type: physicochemical; conditions: 0.3 μM to 30 μM solutions in extracellular fluid pH 7.4, from DMSO stock
Protocol: Extracellular fluid: 140 mM NaCl, 3.5 mM KCl, 1 mM MgCl2, 2 mM CaCl2, 10 mM glucose, 10 mM HEPES, 1.25 mM NaH2PO4, pH=7.4 (adjusted by NaOH). The stock solution of the compound of Example 8 of the present invention (30.26 mM solution in DMSO) was successively diluted with 10 mL of extracellular fluid to obtain 0.3 μM, 1 μM, 3 μM, […], and 30 μM solutions. […] 10 mg of Cisapride was dissolved in 2066.29 μL of dimethyl sulfoxide (DMSO) to obtain a 10 mM stock solution. The Cisapride stock solution was successively diluted with dimethyl sulfoxide (DMSO) to obtain a total of 4 concentrations of 1 μM, 10 μM, 100 μM and 1 mM. Before the test, 10 μL of the diluent at each concentration was added to 10 mL of extracellular fluid to ensure that the DMSO concentration was 0.1%. The final working concentration of Cisapride was 1 nM, 10 nM, 100 nM and 1 μM.

SMILES	level of ALT, AST, GGT and TBA in the serum of ANIT rat (in words) [1]	ALT ([1]; 3 mg/kg/d intragastric)	AST ([1]; 3 mg/kg/d intragastric)	GGT ([1]; 3 mg/kg/d intragastric)	TBA ([1]; 3 mg/kg/d intragastric)	ALT ([1]; 10 mg/kg/d intragastric)	AST ([1]; 10 mg/kg/d intragastric)	GGT ([1]; 10 mg/kg/d intragastric)	TBA ([1]; 10 mg/kg/d intragastric)	solubility of the test sample, visually inspected [2]
O=C(O)c1ccc(-c2nnc(N3[C@@H]4CC[C@H]3C[C@@H](OCc3c(-c5c(Cl)cccc5Cl)noc3C3CC3)C4)o2)cc1 [Example 8, 4-(5-((1R,3r,5S)-3-((5-cyclopropyl-3-(2,6-dichlorophenyl)isoxazol-4-yl)methoxy)-8-azabicyclo[3.2.1]octan-8-yl)-1,3,4-oxadiazol-2-yl)benzoic acid]	significantly reduce	164.8 ± 85.0	401.8 ± 172.8	2.5 ± 0.7	100.0 ± 99.8	79.9 ± 98.7	243.5 ± 192.6	2.0 ± 0.5	32.9 ± 68.0	completely dissolved without visible precipitation
O=C(O)c1ccc(-c2nnc(N3[C@@H]4CC[C@H]3C[C@@H](OCc3c(-c5c(Cl)cccc5Cl)noc3C3CC3)C4)o2)s1 [Example 11]	significantly reduce	276.3 ± 118.0	761.3 ± 253.7	4.9 ± 0.9	243.4 ± 72.4	180.3 ± 107.8	466.1 ± 242.4	3.7 ± 1.5	190.3 ± 140.7	–
Cc1cc(C(=O)O)ccc1-c1nnc(N2[C@@H]3CC[C@H]2C[C@@H](OCc2c(-c4c(Cl)cccc4Cl)noc2C2CC2)C3)o1 [Example 14]	significantly reduce	220.3 ± 104.0	643.3 ± 239.3	4.6 ± 1.3	235.8 ± 80.1	45.5 ± 11.9	181.4 ± 20.8	1.7 ± 0.4	20.3 ± 12.3	–
O=C(O)c1ccc(-c2nnc(N3[C@@H]4CC[C@H]3C[C@@H](OCc3c(-c5ccccc5OC(F)(F)F)noc3C3CC3)C4)o2)cc1 [Example 22, 4-(5-((1R,3r,5S)-3-((5-cyclopropyl-3-(2-(trifluoromethoxy)phenyl)isoxazol-4-yl)methoxy)-8-azabicyclo[3.2.1]octan-8-yl)-1,3,4-oxadiazol-2-yl)benzoic acid]	significantly reduce	100.8 ± 90.9	324.8 ± 313.1	2.7 ± 1.7	73.3 ± 103.2	44.5 ± 8.1	163.3 ± 21.3	1.8 ± 0.5	27.4 ± 13.6	–

From patent publication US20220127258A1, “AROMATIC RING OR HETEROAROMATIC RING COMPOUNDS, PREPARATION METHOD THEREFOR AND MEDICAL USE THEREOF” (The National Institutes of Pharmaceutical R&D Co., Ltd., priority 2019, published 2022)
